Assays:
Assay in all cases: relative viability (nuclei count vs DMSO), 5 days (fraction); higher = more cells survive
EMC-BAC-2 = test system: EMC-BAC-2
How it was run: (§1)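 A single step with final 0.05% Triton X-100, 1% formaldehyde and 1 ug/ml Hoechst fixed the cells and stained nuclei 5 days after treatment. Lung cancer cell lines in 1536-well plates had been treated by pin tool the day after seeding with one drug alone or a fixed anchor-drug dose plus five library-drug doses (not always all listed) in √10 steps, and nuclei were counted on 4× images. Relative viability is the ratio of nuclei in treated wells to nuclei in vehicle wells, taken as the median of duplicate plates.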

NCI-H1437 = test system: NCI-H1437
How it was run: as §1

NCI-H1395 = test system: NCI-H1395
How it was run: as §1

CAL-12T = test system: CAL-12T
How it was run: as §1

NCI-H2009 = test system: NCI-H2009
How it was run: as §1

EKVX = test system: EKVX
How it was run: as §1

LCLC-97TM1 = test system: LCLC-97TM1
How it was run: as §1

SW 900 = test system: SW 900
How it was run: as §1

NCI-H522 = test system: NCI-H522
How it was run: as §1

LOU-NH91 = test system: LOU-NH91
How it was run: as §1

NCI-H596 = test system: NCI-H596
How it was run: as §1

HCC-78 = test system: HCC-78
How it was run: as §1

NCI-H2023 = test system: NCI-H2023
How it was run: as §1

NCI-H2170 = test system: NCI-H2170
How it was run: as §1

LK-2 = test system: LK-2
How it was run: as §1

NCI-H1650 = test system: NCI-H1650
How it was run: as §1

BEN = test system: BEN
How it was run: as §1

HCC-827 = test system: HCC-827
How it was run: as §1

UMC-11 = test system: UMC-11
How it was run: as §1

SK-LU-1 = test system: SK-LU-1
How it was run: as §1

NCI-H1755 = test system: NCI-H1755
How it was run: as §1

EPLC-272H = test system: EPLC-272H
How it was run: as §1

PC-14 = test system: PC-14
How it was run: as §1

Nc1cccc2c1CN(C1CCC(=O)NC1=O)C2=O (stereo not drawn) [Lenalidomide] + Nc1nc2[nH]cc(CCc3ccc(C(=O)N[C@@H](CCC(=O)O)C(=O)O)cc3)c2c(=O)[nH]1 [Pemetrexed] (partner 0.2 µM)
relative viability (EMC-BAC-2; first compound 0.253 µM): 0.437 | relative viability (EMC-BAC-2; first compound 0.8 µM): 0.392 | relative viability (EMC-BAC-2; first compound 2.53 µM): 0.451 | relative viability (EMC-BAC-2; first compound 8 µM): 0.463 | relative viability (NCI-H1437; first compound 0.253 µM): 0.294 | relative viability (NCI-H1437; first compound 0.8 µM): 0.33 | relative viability (NCI-H1437; first compound 2.53 µM): 0.327 | relative viability (NCI-H1437; first compound 8 µM): 0.323 | relative viability (NCI-H1395; first compound 0.253 µM): 0.875 | relative viability (NCI-H1395; first compound 2.53 µM): 0.948 | relative viability (NCI-H1395; first compound 8 µM): 0.874 | relative viability (CAL-12T; first compound 0.253 µM): 1.18 | relative viability (CAL-12T; first compound 0.8 µM): 1.32 | relative viability (CAL-12T; first compound 2.53 µM): 1.67 | relative viability (CAL-12T; first compound 8 µM): 1.57 | relative viability (NCI-H2009; first compound 0.253 µM): 0.988 | relative viability (NCI-H2009; first compound 0.8 µM): 1.05 | relative viability (NCI-H2009; first compound 2.53 µM): 1 | relative viability (NCI-H2009; first compound 8 µM): 1.08 | relative viability (EKVX; first compound 0.253 µM): 0.333 | relative viability (EKVX; first compound 0.8 µM): 0.33 | relative viability (EKVX; first compound 2.53 µM): 0.466 | relative viability (EKVX; first compound 8 µM): 0.396 | relative viability (LCLC-97TM1; first compound 0.253 µM): 0.175 | relative viability (LCLC-97TM1; first compound 0.8 µM): 0.151 | relative viability (LCLC-97TM1; first compound 2.53 µM): 0.18 | relative viability (LCLC-97TM1; first compound 8 µM): 0.2 | relative viability (SW 900; first compound 2.53 µM): 0.509 | relative viability (SW 900; first compound 8 µM): 0.477 | relative viability (NCI-H522; first compound 0.253 µM): 1.05 | relative viability (NCI-H522; first compound 0.8 µM): 0.912 | relative viability (NCI-H522; first compound 2.53 µM): 1.11 | relative viability (NCI-H522; first compound 8 µM): 0.663 | relative viability (LOU-NH91; first compound 0.253 µM): 0.398 | relative viability (LOU-NH91; first compound 0.8 µM): 0.361 | relative viability (LOU-NH91; first compound 2.53 µM): 0.408 | relative viability (LOU-NH91; first compound 8 µM): 0.406 | relative viability (NCI-H596; first compound 0.253 µM): 0.519 | relative viability (NCI-H596; first compound 0.8 µM): 0.4 | relative viability (NCI-H596; first compound 2.53 µM): 0.538 | relative viability (NCI-H596; first compound 8 µM): 0.48 | relative viability (HCC-78; first compound 0.253 µM): 0.878 | relative viability (HCC-78; first compound 0.8 µM): 0.936 | relative viability (HCC-78; first compound 2.53 µM): 0.886 | relative viability (HCC-78; first compound 8 µM): 0.937 | relative viability (NCI-H2023; first compound 0.253 µM): 0.259 | relative viability (NCI-H2023; first compound 0.8 µM): 0.235 | relative viability (NCI-H2023; first compound 2.53 µM): 0.246 | relative viability (NCI-H2023; first compound 8 µM): 0.256 | relative viability (NCI-H2170; first compound 0.253 µM): 0.279 | relative viability (NCI-H2170; first compound 0.8 µM): 0.282 | relative viability (NCI-H2170; first compound 2.53 µM): 0.259 | relative viability (NCI-H2170; first compound 8 µM): 0.27 | relative viability (LK-2; first compound 0.253 µM): 0.301 | relative viability (LK-2; first compound 0.8 µM): 0.167 | relative viability (LK-2; first compound 2.53 µM): 0.227 | relative viability (LK-2; first compound 8 µM): 0.175 | relative viability (NCI-H1650; first compound 0.253 µM): 0.357 | relative viability (NCI-H1650; first compound 0.8 µM): 0.357 | relative viability (NCI-H1650; first compound 2.53 µM): 0.366 | relative viability (NCI-H1650; first compound 8 µM): 0.53 | relative viability (BEN; first compound 0.253 µM): 0.787 | relative viability (BEN; first compound 0.8 µM): 0.608 | relative viability (BEN; first compound 2.53 µM): 0.737 | relative viability (BEN; first compound 8 µM): 0.673 | relative viability (HCC-827; first compound 0.253 µM): 0.276 | relative viability (HCC-827; first compound 0.8 µM): 0.269 | relative viability (HCC-827; first compound 2.53 µM): 0.252 | relative viability (HCC-827; first compound 8 µM): 0.304 | relative viability (UMC-11; first compound 0.253 µM): 0.93 | relative viability (UMC-11; first compound 0.8 µM): 0.72 | relative viability (UMC-11; first compound 2.53 µM): 0.84 | relative viability (UMC-11; first compound 8 µM): 0.8 | relative viability (SK-LU-1; first compound 0.253 µM): 1.04 | relative viability (SK-LU-1; first compound 0.8 µM): 1.07 | relative viability (SK-LU-1; first compound 2.53 µM): 1.12 | relative viability (SK-LU-1; first compound 8 µM): 1.11 | relative viability (NCI-H1755; first compound 0.253 µM): 0.441 | relative viability (NCI-H1755; first compound 0.8 µM): 0.452 | relative viability (NCI-H1755; first compound 2.53 µM): 0.691 | relative viability (NCI-H1755; first compound 8 µM): 0.448 | relative viability (EPLC-272H; first compound 0.253 µM): 0.328 | relative viability (EPLC-272H; first compound 2.53 µM): 0.356 | relative viability (EPLC-272H; first compound 8 µM): 0.359 | relative viability (PC-14; first compound 0.253 µM): 0.126 | relative viability (PC-14; first compound 0.8 µM): 0.151 | relative viability (PC-14; first compound 2.53 µM): 0.139 | relative viability (PC-14; first compound 8 µM): 0.16

Reference: the supplement of paper PMC10307832
